In PubChem BioAssay (NCI):
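Growth conditions: 96-well plates. Treatment: test compound, 48 hours, 5 concentrations. Analysis: linear interpolation between bracketing concentrations; unreached endpoints set to highest concentration. Abbreviation: GI50, concentration required for 50% inhibition of growth. TGI is the concentration that stops growth completely.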

What was measured:
Assay in all cases: NCI tumour cell line growth inhibition, 48 h
OVCAR-3 ovarian = system: OVCAR-3 ovarian
HCT-116 colon = system: HCT-116 colon
TK-10 renal = system: TK-10 renal
A549 NSCLC = system: A549 NSCLC
A498 renal = system: A498 renal
ACHN renal = system: ACHN renal
PC-3 prostate = system: PC-3 prostate
K-562 leukemia = system: K-562 leukemia
BT-549 breast = system: BT-549 breast
SK-MEL-2 melanoma = system: SK-MEL-2 melanoma
U251 CNS = system: U251 CNS
HS 578T breast = system: HS 578T breast
NCI-H23 lung = system: NCI-H23 lung
NCI-H460 lung = system: NCI-H460 lung
SR leukemia = system: SR leukemia
RXF 393 renal = system: RXF 393 renal
SNB-19 CNS = system: SNB-19 CNS
MALME-3M melanoma = system: MALME-3M melanoma
786-0 renal = system: 786-0 renal
MCF7 breast = system: MCF7 breast
SK-MEL-5 melanoma = system: SK-MEL-5 melanoma
SNB-75 CNS = system: SNB-75 CNS
MDA-MB-231 breast = system: MDA-MB-231 breast
UO-31 renal = system: UO-31 renal
SK-OV-3 ovarian = system: SK-OV-3 ovarian
UACC-257 melanoma = system: UACC-257 melanoma
T-47D breast = system: T-47D breast
CAKI-1 renal = system: CAKI-1 renal
HCC-2998 colon = system: HCC-2998 colon
M14 melanoma = system: M14 melanoma
OVCAR-5 ovarian = system: OVCAR-5 ovarian
OVCAR-4 ovarian = system: OVCAR-4 ovarian
UACC-62 melanoma = system: UACC-62 melanoma
SK-MEL-28 melanoma = system: SK-MEL-28 melanoma
HT29 colon = system: HT29 colon
SF-539 CNS = system: SF-539 CNS
MDA-MB-435 = system: MDA-MB-435
HOP-92 NSCLC = system: HOP-92 NSCLC
MOLT-4 leukemia = system: MOLT-4 leukemia
IGROV1 ovarian = system: IGROV1 ovarian
SF-295 CNS = system: SF-295 CNS
HCT-15 colon = system: HCT-15 colon
OVCAR-8 ovarian = system: OVCAR-8 ovarian
COLO 205 colon = system: COLO 205 colon
SF-268 CNS = system: SF-268 CNS
DU-145 prostate = system: DU-145 prostate
SN12C renal = system: SN12C renal
NCI/ADR-RES ovarian = system: NCI/ADR-RES ovarian
HL-60(TB) leukemia = system: HL-60(TB) leukemia
NCI-H226 lung = system: NCI-H226 lung
LOX IMVI melanoma = system: LOX IMVI melanoma
CCRF-CEM leukemia = system: CCRF-CEM leukemia
RPMI-8226 leukemia = system: RPMI-8226 leukemia
KM12 colon = system: KM12 colon
HOP-62 NSCLC = system: HOP-62 NSCLC
SW-620 colon = system: SW-620 colon
NCI-H522 lung = system: NCI-H522 lung

O=C1NC(=NCCc2cccs2)S/C1=C\c1ccc2ncccc2c1
GI50 (OVCAR-3 ovarian): 10.1 µM
TGI (OVCAR-3 ovarian): > 25 µM
GI50 (HCT-116 colon): 5.92 µM
TGI (HCT-116 colon): > 25 µM
GI50 (TK-10 renal): 7.77 µM
TGI (TK-10 renal): > 25 µM
GI50 (A549 NSCLC): 8.83 µM
TGI (A549 NSCLC): > 25 µM
GI50 (A498 renal): 7.59 µM
TGI (A498 renal): > 22.3 µM
GI50 (ACHN renal): 8.33 µM
TGI (ACHN renal): > 25 µM
GI50 (PC-3 prostate): > 20 µM
TGI (PC-3 prostate): > 25 µM
GI50 (K-562 leukemia): 8.85 µM
TGI (K-562 leukemia): > 25 µM
GI50 (BT-549 breast): 6.39 µM
TGI (BT-549 breast): 22 µM
GI50 (SK-MEL-2 melanoma): > 18.8 µM
TGI (SK-MEL-2 melanoma): > 25 µM
GI50 (U251 CNS): 8.79 µM
TGI (U251 CNS): > 25 µM
GI50 (HS 578T breast): 6.57 µM
TGI (HS 578T breast): > 21.8 µM
GI50 (NCI-H23 lung): 9.54 µM
TGI (NCI-H23 lung): > 25 µM
GI50 (NCI-H460 lung): 10.3 µM
TGI (NCI-H460 lung): > 25 µM
GI50 (SR leukemia): 2.23 µM
TGI (SR leukemia): 14.2 µM
GI50 (RXF 393 renal): 7.68 µM
TGI (RXF 393 renal): > 25 µM
GI50 (SNB-19 CNS): 9.64 µM
TGI (SNB-19 CNS): > 25 µM
GI50 (MALME-3M melanoma): > 25 µM
TGI (MALME-3M melanoma): > 25 µM
GI50 (786-0 renal): 14.5 µM
TGI (786-0 renal): > 25 µM
GI50 (MCF7 breast): 8.28 µM
TGI (MCF7 breast): > 25 µM
GI50 (SK-MEL-5 melanoma): 8.5 µM
TGI (SK-MEL-5 melanoma): > 25 µM
GI50 (SNB-75 CNS): 5.91 µM
TGI (SNB-75 CNS): > 22.6 µM
GI50 (MDA-MB-231 breast): 19.7 µM
TGI (MDA-MB-231 breast): > 25 µM
GI50 (UO-31 renal): 11.4 µM
TGI (UO-31 renal): > 25 µM
GI50 (SK-OV-3 ovarian): 9.36 µM
TGI (SK-OV-3 ovarian): > 25 µM
GI50 (UACC-257 melanoma): > 19.3 µM
TGI (UACC-257 melanoma): > 25 µM
GI50 (T-47D breast): 10.1 µM
TGI (T-47D breast): > 25 µM
GI50 (CAKI-1 renal): 9.7 µM
TGI (CAKI-1 renal): > 25 µM
GI50 (HCC-2998 colon): 22.1 µM
TGI (HCC-2998 colon): > 25 µM
GI50 (M14 melanoma): 12.1 µM
TGI (M14 melanoma): > 25 µM
GI50 (OVCAR-5 ovarian): > 20.4 µM
TGI (OVCAR-5 ovarian): > 25 µM
GI50 (OVCAR-4 ovarian): 13.2 µM
TGI (OVCAR-4 ovarian): > 25 µM
GI50 (UACC-62 melanoma): 9.51 µM
TGI (UACC-62 melanoma): > 25 µM
GI50 (SK-MEL-28 melanoma): 24.4 µM
TGI (SK-MEL-28 melanoma): > 25 µM
GI50 (HT29 colon): 11.8 µM
TGI (HT29 colon): > 25 µM
GI50 (SF-539 CNS): 7.54 µM
TGI (SF-539 CNS): > 25 µM
GI50 (MDA-MB-435): 6.97 µM
TGI (MDA-MB-435): > 25 µM
GI50 (HOP-92 NSCLC): 4.7 µM
TGI (HOP-92 NSCLC): > 25 µM
GI50 (MOLT-4 leukemia): 12.6 µM
TGI (MOLT-4 leukemia): > 25 µM
GI50 (IGROV1 ovarian): 9.1 µM
TGI (IGROV1 ovarian): > 25 µM
GI50 (SF-295 CNS): 9.56 µM
TGI (SF-295 CNS): > 25 µM
GI50 (HCT-15 colon): 8.02 µM
TGI (HCT-15 colon): > 25 µM
GI50 (OVCAR-8 ovarian): 10.3 µM
TGI (OVCAR-8 ovarian): > 25 µM
GI50 (COLO 205 colon): 7.79 µM
TGI (COLO 205 colon): > 25 µM
GI50 (SF-268 CNS): 10 µM
TGI (SF-268 CNS): > 25 µM
GI50 (DU-145 prostate): 11.2 µM
TGI (DU-145 prostate): > 25 µM
GI50 (SN12C renal): 8.78 µM
TGI (SN12C renal): > 25 µM
GI50 (NCI/ADR-RES ovarian): 15.3 µM
TGI (NCI/ADR-RES ovarian): > 25 µM
GI50 (HL-60(TB) leukemia): 9.17 µM
TGI (HL-60(TB) leukemia): > 25 µM
GI50 (NCI-H226 lung): 8.21 µM
TGI (NCI-H226 lung): > 25 µM
GI50 (LOX IMVI melanoma): 8.12 µM
TGI (LOX IMVI melanoma): > 25 µM
GI50 (CCRF-CEM leukemia): 10.2 µM
TGI (CCRF-CEM leukemia): > 25 µM
GI50 (RPMI-8226 leukemia): 11.6 µM
TGI (RPMI-8226 leukemia): > 25 µM
GI50 (KM12 colon): 10.8 µM
TGI (KM12 colon): > 25 µM
GI50 (HOP-62 NSCLC): 11.8 µM
TGI (HOP-62 NSCLC): > 25 µM
GI50 (SW-620 colon): 8.2 µM
TGI (SW-620 colon): > 25 µM
GI50 (NCI-H522 lung): 7.33 µM
TGI (NCI-H522 lung): > 25 µM
